Reference: patent publication US20080119491A1, “AMIDINOHETEROCYCLES AS MODULATORS OF INDOLEAMINE 2,3-DIOXYGENASE” (INCYTE CORPORATION, priority 2006, published 2008)

Target: T1, Human indoleamine 2,3-dioxygenasae (IDO) (Homo sapiens, UniProt P14902)
T1 construct: His tag (N); made in house; host or cells: E. coli
Assay: Human indoleamine 2,3-dioxygenase (IDO) enzyme assay
Assay type: biochemical
Details: 95 nM IDO, 2 mM D-Trp, pH 6.5, room temperature
Description: Human indoleamine 2,3-dioxygenasae (IDO) with an N-terminal His tag was expressed in E. coli and purified to homogeneity. IDO catalyzes the oxidative cleavage of the pyrrole ring of the indole nucleus of tryptophan to yield N′-formylkynurenine. The assays were performed at room temperature as described in the literature using 95 nM IDO and 2 mM D-Trp in the presence of 20 mM ascorbate, 5 μM methylene blue and 0.2 mg/mL catalase in 50 mM potassium phosphate buffer (pH 6.5). The initial reaction rates were recorded by continuously following the absorbance increase at 321 nm due to the formation of N′-formlylkynurenine. See: Sono, M., Taniguchi, T., Watanabe, Y., and Hayaishi, O. (1980) J. Biol. Chem. 255, 1339-1345. […] The symbol “+” indicates […]. The symbol “+++” indicates IC50>[…]

T1 sequence (P14902 whole entry): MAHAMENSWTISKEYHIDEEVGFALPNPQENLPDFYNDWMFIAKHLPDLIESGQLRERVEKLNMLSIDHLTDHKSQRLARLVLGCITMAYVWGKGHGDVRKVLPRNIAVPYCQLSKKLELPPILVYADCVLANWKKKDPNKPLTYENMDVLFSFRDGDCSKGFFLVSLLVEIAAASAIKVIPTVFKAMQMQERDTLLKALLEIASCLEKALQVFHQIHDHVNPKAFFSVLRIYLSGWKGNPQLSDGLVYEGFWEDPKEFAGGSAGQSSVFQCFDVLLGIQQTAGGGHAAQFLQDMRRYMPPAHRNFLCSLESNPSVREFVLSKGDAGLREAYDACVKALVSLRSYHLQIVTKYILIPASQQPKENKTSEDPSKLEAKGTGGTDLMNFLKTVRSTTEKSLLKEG

Question: Which IC50 does the source give for ON=C(Nc1cccc(C(F)(F)F)c1)c1cccnc1 [Example 8, N′-hydroxy-N-[3-(trifluoromethyl)-phenyl]pyridine-3-carbox-imidamide] here?
Answer: > 10 µM

Question: Cc1ccc(Cl)cc1CNC(=NO)c1cccnn1 [Example 13, N-(5-chloro-2-methylbenzyl)-N′-hydroxypyridazine-3-carboximidamide] was tested. Which IC50 did it give?
Answer: > 10 µM

Question: COc1ccc(CNc2nccnc2C(=NO)Nc2ccc(F)c(Cl)c2)cc1 [Example 5] was tested. Which IC50 did it give?
Answer: > 10 µM

Question: With Nc1nccnc1C(=NO)Nc1ccc(F)c(Cl)c1 [Example 6, 3-amino-N′-hydroxy-N-[3-chloro,4-fluorophenyl]pyrazine-2-carbox-imidamide] as the compound, how does the IC50 read?
Answer: > 10 µM

Question: With COc1ccc(CNc2nccnc2C(=NO)Nc2cccc(C(F)(F)F)c2)cc1 [Example 1, NA-Hydroxy-3-[(4-methoxybenzyl)amino]-N-[3-(trifluoromethyl)phenyl]-pyrazine-2-carboximidamide] as the compound, how does the IC50 read?
Answer: > 10 µM

Question: How did the IC50 turn out when Nc1nccnc1C(=NO)Nc1cccc(C(F)(F)F)c1 [Example 2, 3-Amino-N′-hydroxy-N-[3-(trifluoromethyl)phenyl]pyrazine-2-carboximidamide] was run?
Answer: > 10 µM

Question: For ON=C(Nc1cccc(C(F)(F)F)c1)c1cnccn1 [Example 7, N′-hydroxy-N-[3-(trifluoromethyl)-phenyl]pyrazine-2-carbox-imidamide], which IC50 is on record?
Answer: > 10 µM

Question: How did the IC50 turn out when ON=C(Nc1ccc(F)c(Cl)c1)c1cccc(Oc2ccccc2)c1 [Example 10, N-(3-chloro-4-fluorophenyl)-N′-hydroxy-3-phenoxybenzene-carboximidamide] was run?
Answer: > 10 µM

Question: Which IC50 does the source give for Nc1nccnc1C(=NO)Nc1ccc(F)c(C(F)(F)F)c1 [Example 4, 3-amino-N′-hydroxy-N-[3-(tri-fluoromethyl), 4-fluorophenyl]-pyrazine-2-carboximidamide] here?
Answer: > 10 µM
